Laboratory results reported in patent US20190106747A1, “DRUGS, PHARMACOGENOMICS AND BIOMARKERS FOR ACIVE LONGEVITY” (Indiana University Research and Technology Corporation, priority 2016, published 2019).

Columns and labels:
worms = conditions: direct prior experimental evidence; cited from earlier work
MME = conditions: Table 5 biomarkers in males; longevity direction of change D; cited from earlier work
C. elegans [1] = test: Lifespan of C. elegans treated with Mianserin; type: in vivo; conditions: for increase in lifespan: 50 μM Mianserin vs water
Description: FIG. 4B is a graph depicting lifespan curves of wt and unc-44(e362) animals treated with water or 50 μM Mianserin. […] (Y-axis) as a function of time [days] (X-axis). Dotted lines represent wt (N2) animals and bold lines represent unc-44(e362) mutants. Black: solvent control; red: Mianserin 50 μM. […] Asterisks indicate P values (**; P<0.01, ***P<0.001).
FIG. 4C is a graph depicting mean increase in lifespan [%] (Y-axis) as a function of Mianserin concentration [μM] (X-axis). Solid red line represents unc-44(e362) animals. Dotted red line represents the parallel control experiment of Mianserin-treated wt (N2) animals. Error bars show standard deviation for experimental replicates.

C. elegans [2] = test: Survival after paraquat (oxidative stress) in Mianserin-treated C. elegans; type: in vivo; conditions: three independent alleles (e362, e1197, e1260) of ANK3/unc-44; 50 μM Mianserin from day 1 adult, paraquat five days later
Description: FIG. 4A are graphs depicting Mianserin-induced protection from oxidative stress requires ANK3/unc-44, the C. elegans homolog of mammalian ANK3. Wild-type (wt) N2 strain (dotted lines) or ANK3/unc-44 mutants (bold lines), at day 1 adult stage, were treated with water (black) or 50 μM Mianserin (red), followed by increasing concentrations of paraquat five days later. Survival of animals was determined 24 h after paraquat addition and plotted in [%] (Y-axis) as a function of paraquat concentration [mM] (X-axis). Parallel wt (N2) control experiments (dotted lines) are shown for each graph. […] All error bars show S.E.M for 3 to 4 independent experiments.

ABCC1 = ABCC1 (Homo sapiens, UniProt P33527); conditions: existing drug targeting top longevity biomarker; cited from earlier work
Sequence of ABCC1 (P33527 whole entry): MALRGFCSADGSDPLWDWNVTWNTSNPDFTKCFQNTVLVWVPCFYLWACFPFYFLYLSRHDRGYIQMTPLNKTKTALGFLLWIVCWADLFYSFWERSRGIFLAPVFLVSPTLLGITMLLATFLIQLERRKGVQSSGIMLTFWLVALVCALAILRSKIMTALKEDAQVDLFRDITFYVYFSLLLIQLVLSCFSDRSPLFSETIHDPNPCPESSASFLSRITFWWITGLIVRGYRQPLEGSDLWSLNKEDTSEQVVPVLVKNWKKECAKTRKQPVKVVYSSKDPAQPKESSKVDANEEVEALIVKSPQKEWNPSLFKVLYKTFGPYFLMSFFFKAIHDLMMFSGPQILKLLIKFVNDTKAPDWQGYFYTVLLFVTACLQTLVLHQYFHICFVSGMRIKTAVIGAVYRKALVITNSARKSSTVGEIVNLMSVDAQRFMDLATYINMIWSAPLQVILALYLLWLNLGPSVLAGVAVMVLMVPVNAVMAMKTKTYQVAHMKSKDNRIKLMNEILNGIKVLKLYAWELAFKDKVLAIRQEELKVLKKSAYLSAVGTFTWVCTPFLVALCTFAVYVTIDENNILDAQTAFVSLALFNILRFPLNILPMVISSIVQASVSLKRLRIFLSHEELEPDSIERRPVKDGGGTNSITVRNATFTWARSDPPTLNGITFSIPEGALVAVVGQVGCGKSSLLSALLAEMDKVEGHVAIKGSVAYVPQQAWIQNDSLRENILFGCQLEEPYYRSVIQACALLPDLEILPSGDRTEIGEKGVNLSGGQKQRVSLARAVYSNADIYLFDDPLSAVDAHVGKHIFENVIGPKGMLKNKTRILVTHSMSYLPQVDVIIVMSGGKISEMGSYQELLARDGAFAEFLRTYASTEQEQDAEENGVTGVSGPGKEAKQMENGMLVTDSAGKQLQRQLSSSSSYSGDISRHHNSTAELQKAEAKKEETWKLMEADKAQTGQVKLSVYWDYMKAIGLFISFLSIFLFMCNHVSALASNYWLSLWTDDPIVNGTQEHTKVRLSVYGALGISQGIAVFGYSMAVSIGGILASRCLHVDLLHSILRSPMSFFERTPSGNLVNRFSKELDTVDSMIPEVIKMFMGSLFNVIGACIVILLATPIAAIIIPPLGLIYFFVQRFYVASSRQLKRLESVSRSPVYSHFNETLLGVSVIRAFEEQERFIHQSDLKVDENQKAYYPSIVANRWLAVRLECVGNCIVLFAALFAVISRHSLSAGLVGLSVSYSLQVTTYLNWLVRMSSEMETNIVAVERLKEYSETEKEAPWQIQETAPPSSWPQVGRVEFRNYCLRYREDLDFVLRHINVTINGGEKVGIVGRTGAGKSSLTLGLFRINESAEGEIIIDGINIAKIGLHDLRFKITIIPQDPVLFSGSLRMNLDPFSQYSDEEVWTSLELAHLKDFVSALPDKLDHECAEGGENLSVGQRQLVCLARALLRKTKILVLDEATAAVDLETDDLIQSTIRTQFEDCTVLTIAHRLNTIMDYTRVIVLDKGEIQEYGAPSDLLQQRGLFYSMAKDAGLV

PLA2G6 = target: T1, PLA2G6 (Homo sapiens, UniProt O60733); conditions: existing drug targeting top longevity biomarker; cited from earlier work
T1 sequence (O60733 1-806): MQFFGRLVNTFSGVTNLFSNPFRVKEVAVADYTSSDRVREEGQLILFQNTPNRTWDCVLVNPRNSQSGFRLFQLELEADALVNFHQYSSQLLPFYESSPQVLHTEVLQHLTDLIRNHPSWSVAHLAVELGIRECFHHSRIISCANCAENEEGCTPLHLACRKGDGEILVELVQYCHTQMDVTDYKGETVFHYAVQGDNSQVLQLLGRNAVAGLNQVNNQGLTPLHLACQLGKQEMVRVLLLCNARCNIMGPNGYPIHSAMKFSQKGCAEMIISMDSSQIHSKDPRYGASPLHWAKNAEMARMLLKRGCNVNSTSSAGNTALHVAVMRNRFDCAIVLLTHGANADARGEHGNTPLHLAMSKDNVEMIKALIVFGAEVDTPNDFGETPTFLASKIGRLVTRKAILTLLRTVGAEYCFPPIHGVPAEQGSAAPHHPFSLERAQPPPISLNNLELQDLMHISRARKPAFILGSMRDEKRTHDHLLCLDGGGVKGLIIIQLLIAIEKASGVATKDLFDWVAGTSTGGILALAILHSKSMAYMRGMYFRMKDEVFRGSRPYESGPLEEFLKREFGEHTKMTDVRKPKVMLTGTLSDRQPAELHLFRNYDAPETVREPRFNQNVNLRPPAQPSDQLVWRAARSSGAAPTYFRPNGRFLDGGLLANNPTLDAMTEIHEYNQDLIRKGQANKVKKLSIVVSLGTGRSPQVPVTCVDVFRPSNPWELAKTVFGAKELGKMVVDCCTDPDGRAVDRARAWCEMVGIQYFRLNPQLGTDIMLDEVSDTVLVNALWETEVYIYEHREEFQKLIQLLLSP

NAV1 = conditions: Table 4 universal biomarkers; longevity direction of change D; cited from earlier work
ANK3 = conditions: amygdala of a mouse model of mood disorders and stress; previous work; cited from earlier work
POLH = conditions: Table 4 universal biomarkers; longevity direction of change I; cited from earlier work

In the case of C[C@]12CC[C@@H]3c4ccc(O)cc4CC[C@H]3[C@@H]1CC[C@@H]2O [estradiol, (8R,9S,13S,14S,17S)-13-methyl-6,7,8,9,11,12,14,15,16,17-decahydrocyclopenta[a]phenanthrene-3,17-diol], the lifespan (worms) is given as “extending lifespan”.
For sacubitril/valsartan, the “MME modulated by drug in the same direction as longevity” value (MME) is given as “sacubitril/”.
With CN1CCN2c3ccccc3Cc3ccccc3C2C1 (racemic) [Mianserin, (±)-2-methyl-1,2,3,4,10,14b-hexahydrodibenzo[c,f]pyrazino[1,2-a]azepine] the “lifespan extension as a function of Mianserin concentration” value (C. elegans [1]; ANK3/unc-44(e362) mutants, any Mianserin concentration) was “No lifespan extension”, the increase in lifespan (C. elegans [1]; unc-44(e362) mutant animals) was −9% and the increase in lifespan (C. elegans [1]; wild-type (N2) animals) was “+40%”. The “resistance to oxidative stress (survival 24 h after paraquat)” value (C. elegans [2]) was “failed to increase resistance to oxidative stress”.
In the case of O=C1C(CC[S+]([O-])c2ccccc2)C(=O)N(c2ccccc2)N1c1ccccc1 (centres unmarked) [sulfinpyrazone, 1,2-diphenyl-4-[2-(phenylsulfinyl)ethyl]pyrazolidine-3,5-dione], the “effect on ABCC1” value (ABCC1) is given as “inhibiting”.
For CCN(CC)CCCC(C)Nc1c2ccc(Cl)cc2nc2ccc(OC)cc12 (racemic) [quinacrine, (RS)—N′-(6-Chloro-2-methoxy-acridin-9-yl)-N,N-diethylpentane-1,4-diamine], the “effect on PLA2G6” value (PLA2G6) is given as “inhibiting”.
In the case of COc1ccc(C(CN(C)C)C2(O)CCCCC2)cc1 (centres unmarked) [Venlafaxine], the “NAV1 modulated by drug in the same direction as longevity” value (NAV1) is given as “Venlafaxine”.
In the case of CC/C=C\C/C=C\C/C=C\C/C=C\C/C=C\C/C=C\CCC(=O)O [DHA], the ANK3 expression (ANK3) is listed as “decreased”.
In the case of NC(=O)N1c2ccccc2C=Cc2ccccc21 [Carbamazepine], the “POLH modulated by drug in the same direction as longevity” value (POLH) is listed as “Carbamazepine”.
